Test results as given in the CheMixHub viscosity set.

Experiment: xn = mol fraction of the nth substance listed

O=S1(=O)CCCC1 + O
Conditions | viscosity [mPa·s]
293.15 K, 101 kPa, x1 = 0.02074 | 1.163
293.15 K, 101 kPa, x1 = 0.04649 | 1.387
293.15 K, 101 kPa, x1 = 0.07703 | 1.634
293.15 K, 101 kPa, x1 = 0.1147 | 1.969
293.15 K, 101 kPa, x1 = 0.1615 | 2.405
293.15 K, 101 kPa, x1 = 0.2247 | 3.044
293.15 K, 101 kPa, x1 = 0.3102 | 3.813
293.15 K, 101 kPa, x1 = 0.4328 | 4.899
293.15 K, 101 kPa, x1 = 0.6323 | 6.59
293.15 K, 101 kPa, x1 = 0.7807 | 8.243
298 K, 100 kPa, x1 = 0.0215 | 1
298 K, 100 kPa, x1 = 0.035 | 1.11
298 K, 100 kPa, x1 = 0.0679 | 1.32
298 K, 100 kPa, x1 = 0.0888 | 1.51
298 K, 100 kPa, x1 = 0.121 | 1.74
298 K, 100 kPa, x1 = 0.221 | 2.52
298 K, 100 kPa, x1 = 0.569 | 5.19
298.15 K, 101 kPa, x1 = 0.02074 | 1.038
298.15 K, 101 kPa, x1 = 0.02077 | 1.01
298.15 K, 101 kPa, x1 = 0.04267 | 1.17
298.15 K, 101 kPa, x1 = 0.04649 | 1.221
298.15 K, 101 kPa, x1 = 0.07103 | 1.59
298.15 K, 101 kPa, x1 = 0.07703 | 1.458
298.15 K, 101 kPa, x1 = 0.09929 | 1.64
298.15 K, 101 kPa, x1 = 0.1147 | 1.735
298.15 K, 101 kPa, x1 = 0.1615 | 2.129
298.15 K, 101 kPa, x1 = 0.2247 | 2.656
298.15 K, 101 kPa, x1 = 0.25 | 2.738
298.15 K, 101 kPa, x1 = 0.3102 | 3.347
298.15 K, 101 kPa, x1 = 0.4328 | 4.263
298.15 K, 101 kPa, x1 = 0.5 | 4.583
298.15 K, 101 kPa, x1 = 0.6323 | 5.775
298.15 K, 101 kPa, x1 = 0.75 | 6.772
298.15 K, 101 kPa, x1 = 0.7807 | 7.049
298.15 K, 101 kPa, x1 = 0.85 | 7.49
303.15 K, 101 kPa, x1 = 0.0147 | 0.8884
303.15 K, 101 kPa, x1 = 0.02074 | 0.927
303.15 K, 101 kPa, x1 = 0.02077 | 0.91
303.15 K, 101 kPa, x1 = 0.0208 | 0.9245
303.15 K, 101 kPa, x1 = 0.04267 | 1.04
303.15 K, 101 kPa, x1 = 0.04649 | 1.093
303.15 K, 101 kPa, x1 = 0.0701 | 1.255
303.15 K, 101 kPa, x1 = 0.07103 | 1.34
303.15 K, 101 kPa, x1 = 0.0744 | 1.273
303.15 K, 101 kPa, x1 = 0.0958 | 1.429
303.15 K, 101 kPa, x1 = 0.09929 | 1.44
303.15 K, 101 kPa, x1 = 0.1435 | 1.761
303.15 K, 101 kPa, x1 = 0.1586 | 1.852
303.15 K, 101 kPa, x1 = 0.1924 | 2.101
303.15 K, 101 kPa, x1 = 0.25 | 2.287
303.15 K, 101 kPa, x1 = 0.3022 | 2.856
303.15 K, 101 kPa, x1 = 0.4496 | 3.865
303.15 K, 101 kPa, x1 = 0.5 | 3.797
303.15 K, 101 kPa, x1 = 0.6077 | 4.963
303.15 K, 101 kPa, x1 = 0.6106 | 5.004
303.15 K, 101 kPa, x1 = 0.749 | 6.085
303.15 K, 101 kPa, x1 = 0.75 | 5.994
303.15 K, 101 kPa, x1 = 0.7813 | 6.555
303.15 K, 101 kPa, x1 = 0.85 | 7.236
313.15 K, 101 kPa, x1 = 0.0147 | 0.7245
313.15 K, 101 kPa, x1 = 0.02077 | 0.74
313.15 K, 101 kPa, x1 = 0.0208 | 0.753
313.15 K, 101 kPa, x1 = 0.0701 | 1.014
313.15 K, 101 kPa, x1 = 0.07103 | 1.01
313.15 K, 101 kPa, x1 = 0.0744 | 1.029
313.15 K, 101 kPa, x1 = 0.0958 | 1.152
313.15 K, 101 kPa, x1 = 0.09929 | 1.15
313.15 K, 101 kPa, x1 = 0.1435 | 1.414
313.15 K, 101 kPa, x1 = 0.1586 | 1.484
313.15 K, 101 kPa, x1 = 0.1924 | 1.681
313.15 K, 101 kPa, x1 = 0.25 | 1.928
313.15 K, 101 kPa, x1 = 0.29 | 2.219
313.15 K, 101 kPa, x1 = 0.3022 | 2.267
313.15 K, 101 kPa, x1 = 0.4496 | 3.059
313.15 K, 101 kPa, x1 = 0.5 | 3.212
313.15 K, 101 kPa, x1 = 0.6077 | 3.923
313.15 K, 101 kPa, x1 = 0.6106 | 3.962
313.15 K, 101 kPa, x1 = 0.749 | 4.807
313.15 K, 101 kPa, x1 = 0.75 | 4.743
313.15 K, 101 kPa, x1 = 0.7813 | 5.182
313.15 K, 101 kPa, x1 = 0.85 | 5.24
323.15 K, 101 kPa, x1 = 0.0147 | 0.6051
323.15 K, 101 kPa, x1 = 0.02077 | 0.63
323.15 K, 101 kPa, x1 = 0.0208 | 0.629
323.15 K, 101 kPa, x1 = 0.04267 | 0.7
323.15 K, 101 kPa, x1 = 0.0701 | 0.841
323.15 K, 101 kPa, x1 = 0.07103 | 0.84
323.15 K, 101 kPa, x1 = 0.0744 | 0.8536
323.15 K, 101 kPa, x1 = 0.0958 | 0.9537
323.15 K, 101 kPa, x1 = 0.09929 | 0.96
323.15 K, 101 kPa, x1 = 0.1435 | 1.165
323.15 K, 101 kPa, x1 = 0.1586 | 1.221
323.15 K, 101 kPa, x1 = 0.1924 | 1.379
323.15 K, 101 kPa, x1 = 0.29 | 1.814
323.15 K, 101 kPa, x1 = 0.3022 | 1.85
323.15 K, 101 kPa, x1 = 0.4496 | 2.486
323.15 K, 101 kPa, x1 = 0.6077 | 3.184
323.15 K, 101 kPa, x1 = 0.6106 | 3.217
323.15 K, 101 kPa, x1 = 0.749 | 3.896
323.15 K, 101 kPa, x1 = 0.7813 | 4.197
